From the supplement of paper PMC13380429

What was measured:
[1] = tested on: Caco-2; assay: relative viability EC50 (midpoint between 100% and the lowest measured viability); higher = less toxic; conditions: 72 h
[2] = tested on: Vero E6; assay: as above; conditions: 72 h
[3] = tested on: U2OS; assay: as above; conditions: 72 h
[4] = tested on: HepG2; assay: as above; conditions: 72 h
[5] = tested on: Calu-3; assay: as above; conditions: 72 h
[6] = tested on: Caco-2; assay: drug sensitivity score (DSS) for viability; higher = more toxic; extreme values may be limits of the assay; conditions: 72 h
[7] = tested on: Vero E6; assay: as above; conditions: 72 h
[8] = tested on: U2OS; assay: as above; conditions: 72 h
[9] = tested on: HepG2; assay: as above; conditions: 72 h
[10] = tested on: Calu-3; assay: as above; conditions: 72 h
[11] = tested on: A549-ACE2 infected with SARS-CoV-2; assay: morphology score (similarity to uninfected cells); higher = more like uninfected cells; conditions: 24 h
[12] = tested on: A549-ACE2; assay: drug-induced phospholipidosis relative to tamoxifen; higher = more phospholipidosis
[13] = tested on: A549-ACE2 infected with SARS-CoV-2; assay: SARS-CoV-2 infection rate relative to DMSO; higher = more infection; conditions: 24 h
[14] = tested on: A549-ACE2 infected with SARS-CoV-2; assay: cell count relative to DMSO; higher = less toxic; conditions: 24 h
[15] = tested on: Caco-2; assay: cell viability relative to DMSO; higher = less toxic; conditions: 72 h
[16] = tested on: Vero E6; assay: as above; conditions: 72 h
[17] = tested on: U2OS; assay: as above; conditions: 72 h
[18] = tested on: HepG2; assay: as above; conditions: 72 h
[19] = tested on: Calu-3; assay: as above; conditions: 72 h

c1ccc(-c2ccc(C(c3ccccc3)n3ccnc3)cc2)cc1 (centres undefined) [bifonazole]
Conditions	drug sensitivity score	relative viability EC50 [µM]
[1]	–	> 10
[2]	–	> 10
[3]	–	> 10
[4]	–	> 10
[5]	–	> 10
[6]	1.2	–
[7]	0	–
[8]	0	–
[9]	0	–
[10]	0	–

Conditions	SARS-CoV-2 infection rate, [13] [%]	cell count, [14] [%]	cell viability, [15] [%]	cell viability, [16] [%]	cell viability, [17] [%]	cell viability, [18] [%]	cell viability, [19] [%]	morphology score, [11]
1 nM	–	–	98	85.9	96.9	98.2	98.4	–
10 nM	–	–	99.7	91.2	95.9	97.1	95	–
100 nM	–	–	96.1	86.5	97.2	91.8	106	–
0.3 µM	91	99	–	–	–	–	–	0.26
1000 nM	–	–	94.9	91.5	95.2	98.6	97.1	–
3 µM	103	112	–	–	–	–	–	-0.04
10 µM	106	111	–	–	–	–	–	0.19
10000 nM	–	–	78.7	100	94.7	93.6	99.1	–
30 µM	89	102	–	–	–	–	–	0.57

drug-induced phospholipidosis [%], [12]
Conditions	0.3 µM	0.833333 µM	3.33333 µM	6.66667 µM	10 µM	30 µM
24 h	-0.45	-9.45	-4.39	3.56	6	40.1
48 h	3.19	-4.19	2.93	5.02	14.4	44.7
72 h	2.27	-1.31	4.12	5.49	19.7	–
